# Source: ChEMBL document CHEMBL3885861, “Open TG-GATES”
# Organism: Rattus norvegicus
# Test: Open TG-GATES - Regimen: Single
# Type: toxicity, organism-based, Sprague-Dawley
# Parameters: regimen Single, gender Male, age 6 weeks
# Settings: in vivo, po, 6 mg/kg, route gavage, dose level High; for APTT / Bas / Eos / Fbg / Hb / Ht / Lym / MCH / MCHC / MCV / Mono / Neu / PT / Plat / RBC / Ret / WBC: tissue Blood; for KIDNEY_L / KIDNEY_R / KIDNEY_TOTAL: tissue Kidney; for LIVER: tissue Liver; for A/G / ALP / ALT / AST / BUN / CRE / Ca / Cl / DBIL / GLC / IP / K / LDH / Na / PL / RALB / TBIL / TC / TG / TP / gamma-GTP: tissue Plasma
structure (smiles),measurement,setting,value
O=NN(CCCl)C(=O)NC1CCCCC1 [LOMUSTINE],TERMINAL_BW,3 h,203.9 g
same,APTT,3 h,16.2 s
same,Bas,3 h,0%
same,Eos,3 h,0.4%
same,Fbg,3 h,212.6 mg/dL
same,Hb,3 h,13.3 g/dL
same,Ht,3 h,39.7%
same,Lym,3 h,78.2%
same,MCH,3 h,21.7 pg
same,MCHC,3 h,33.4%
same,MCV,3 h,64.8 fL
same,Mono,3 h,9.4%
same,Neu,3 h,12.2%
same,PT,3 h,11.4 s
same,Plat,3 h,106.7 x10_4/uL
same,RBC,3 h,612.4 x10_4/ul
same,Ret,3 h,8.5%
same,WBC,3 h,112.2 x10_2/uL
same,KIDNEY_L,3 h,0.9 g
same,KIDNEY_R,3 h,0.9 g
same,KIDNEY_TOTAL,3 h,1.9 g
same,LIVER,3 h,10 g
same,A/G,3 h,1.8
same,ALP,3 h,970.2 IU/L
same,ALT,3 h,36.6 IU/L
same,AST,3 h,67.6 IU/L
same,BUN,3 h,13.8 mg/dL
same,CRE,3 h,0.5 mg/dL
same,Ca,3 h,11.3 mg/dL
same,Cl,3 h,105.4 meq/L
same,DBIL,3 h,0.028 mg/dL
same,GLC,3 h,189.6 mg/dL
same,IP,3 h,10.3 mg/dL
same,K,3 h,4.7 meq/L
same,LDH,3 h,161 IU/L
same,Na,3 h,140.4 meq/L
same,PL,3 h,134 mg/dL
same,RALB,3 h,3.6 g/dL
same,TBIL,3 h,0.3 mg/dL
same,TC,3 h,73.8 mg/dL
same,TG,3 h,56.2 mg/dL
same,TP,3 h,5.6 g/dL
same,gamma-GTP,3 h,1.6 IU/L
same,TERMINAL_BW,6 h,201.4 g
same,APTT,6 h,16.7 s
same,Bas,6 h,0%
same,Eos,6 h,0.4%
same,Fbg,6 h,217.8 mg/dL
same,Hb,6 h,13.1 g/dL
same,Ht,6 h,39.4%
same,Lym,6 h,78.6%
same,MCH,6 h,22.2 pg
same,MCHC,6 h,33.3%
same,MCV,6 h,66.7 fL
same,Mono,6 h,7.6%
same,Neu,6 h,13.6%
same,PT,6 h,12.1 s
same,Plat,6 h,108.1 x10_4/uL
same,RBC,6 h,591.6 x10_4/ul
same,Ret,6 h,8.9%
same,WBC,6 h,107.2 x10_2/uL
same,KIDNEY_L,6 h,0.9 g
same,KIDNEY_R,6 h,0.9 g
same,KIDNEY_TOTAL,6 h,1.9 g
same,LIVER,6 h,9.1 g
same,A/G,6 h,1.9
same,ALP,6 h,865 IU/L
same,ALT,6 h,29.4 IU/L
same,AST,6 h,66.2 IU/L
same,BUN,6 h,10.4 mg/dL
same,CRE,6 h,0.5 mg/dL
same,Ca,6 h,11 mg/dL
same,Cl,6 h,104.8 meq/L
same,DBIL,6 h,0.008 mg/dL
same,GLC,6 h,191.8 mg/dL
same,IP,6 h,10.5 mg/dL
same,K,6 h,4.7 meq/L
same,LDH,6 h,152.6 IU/L
same,Na,6 h,139.4 meq/L
same,PL,6 h,132.2 mg/dL
same,RALB,6 h,3.6 g/dL
same,TBIL,6 h,0.3 mg/dL
same,TC,6 h,76 mg/dL
same,TG,6 h,36.6 mg/dL
same,TP,6 h,5.6 g/dL
same,gamma-GTP,6 h,1.8 IU/L
same,TERMINAL_BW,9 h,203.2 g
same,APTT,9 h,16.7 s
same,Bas,9 h,0%
same,Eos,9 h,0.4%
same,Fbg,9 h,224.6 mg/dL
same,Hb,9 h,13.2 g/dL
same,Ht,9 h,40.1%
same,Lym,9 h,79.2%
same,MCH,9 h,21.9 pg
same,MCHC,9 h,32.9%
same,MCV,9 h,66.5 fL
same,Mono,9 h,5.8%
same,Neu,9 h,15%
same,PT,9 h,12.2 s
same,Plat,9 h,104.4 x10_4/uL
same,RBC,9 h,603 x10_4/ul
same,Ret,9 h,9.2%
same,WBC,9 h,97 x10_2/uL
same,KIDNEY_L,9 h,1 g
same,KIDNEY_R,9 h,1 g
same,KIDNEY_TOTAL,9 h,1.9 g
same,LIVER,9 h,8.7 g
same,A/G,9 h,2.2
same,ALP,9 h,889.4 IU/L
same,ALT,9 h,31.4 IU/L
same,AST,9 h,67 IU/L
same,BUN,9 h,13 mg/dL
same,CRE,9 h,0.5 mg/dL
same,Ca,9 h,10.9 mg/dL
same,Cl,9 h,106.4 meq/L
same,DBIL,9 h,0.028 mg/dL
same,GLC,9 h,190.8 mg/dL
same,IP,9 h,11.3 mg/dL
same,K,9 h,5 meq/L
same,LDH,9 h,139.4 IU/L
same,Na,9 h,140 meq/L
same,PL,9 h,139.4 mg/dL
same,RALB,9 h,3.9 g/dL
same,TBIL,9 h,0.3 mg/dL
same,TC,9 h,78.2 mg/dL
same,TG,9 h,39.8 mg/dL
same,TP,9 h,5.7 g/dL
same,gamma-GTP,9 h,1.4 IU/L
same,TERMINAL_BW,24 h,212 g
same,APTT,24 h,15.7 s
same,Bas,24 h,0%
same,Eos,24 h,0.4%
same,Fbg,24 h,214.2 mg/dL
same,Hb,24 h,13.1 g/dL
same,Ht,24 h,39.2%
same,Lym,24 h,84.4%
same,MCH,24 h,21.5 pg
same,MCHC,24 h,33.2%
same,MCV,24 h,64.7 fL
same,Mono,24 h,7%
same,Neu,24 h,7.8%
same,PT,24 h,12.3 s
same,Plat,24 h,107.2 x10_4/uL
same,RBC,24 h,606.6 x10_4/ul
same,Ret,24 h,8.4%
same,WBC,24 h,121.5 x10_2/uL
same,KIDNEY_L,24 h,1 g
same,KIDNEY_R,24 h,1 g
same,KIDNEY_TOTAL,24 h,2 g
same,LIVER,24 h,10.5 g
same,A/G,24 h,2
same,ALP,24 h,873 IU/L
same,ALT,24 h,35.2 IU/L
same,AST,24 h,66.6 IU/L
same,BUN,24 h,17.4 mg/dL
same,CRE,24 h,0.5 mg/dL
same,Ca,24 h,11.2 mg/dL
same,Cl,24 h,105.2 meq/L
same,DBIL,24 h,0.014 mg/dL
same,GLC,24 h,180.4 mg/dL
same,IP,24 h,8.1 mg/dL
same,K,24 h,4.7 meq/L
same,LDH,24 h,106.2 IU/L
same,Na,24 h,137.8 meq/L
same,PL,24 h,144.6 mg/dL
same,RALB,24 h,3.9 g/dL
same,TBIL,24 h,0.3 mg/dL
same,TC,24 h,78.8 mg/dL
same,TG,24 h,71.4 mg/dL
same,TP,24 h,5.8 g/dL
same,gamma-GTP,24 h,1.4 IU/L
